Results from US4760136A, “Chartreusin derivatives and salts thereof” (Ishihara Sangyo Kaisha, Ltd., priority 1984, dated 1988).

What was measured:
[1] = tested on: P-388 leukemia cells; experiment: Antitumor activity: P-388 leukemia cells inoculated intraperitoneally, drug administered intravenously, BDF1 mice; type: in vivo; details: Mus musculus, P388, iv, BDF1 mice, P-388 i.p., read-out: T/C (%) of MST; for response vs control in vivo at 20 mg/kg: dose b: 20 mg/kg × 3, i.v. on days 1, 5 and 9; for response vs control in vivo at 40 mg/kg: dose c: 40 mg/kg × 3, i.v. on days 1, 5 and 9; for response vs control in vivo at 80 mg/kg: dose f: 80 mg/kg × 3, i.v. on days 1, 5 and 9
Method in brief: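 Drug dosing was intravenous on the first, fifth and ninth days after intraperitoneal inoculation of P-388 leukemia cells (1×10^6 per mouse) into BDF1 mice. Vehicles were physiological saline alone, or saline with small amounts of sodium carboxymethyl cellulose or Tween-80.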

[2] = Acute toxicity, intravenous (once), ddY mice; type: in vivo; details: mouse, in vivo, iv, formulated per Preparation Example
Description: In Table 7 are shown acute toxicity values (LD50, mg/kg) in ddY mice in the case of intravenously administering (once) each of the compounds of this invention in the form of preparations shown in the Preparation Examples shown in Table 7.

Molecule COC1C(O)C(C)OC(OC2C(Oc3cccc4c(OC(=O)CC[N+](=O)[O-])c5c(=O)oc6ccc(C)c7c(=O)oc(c34)c5c67)OC(C)C3OC(c4ccccc4)OC32)C1O (centres unmarked) [Compound No. 166] has a response vs control in vivo at 10 mg/kg ([1]; dose a: 10 mg/kg × 3, i.v. on days 1, 5 and 9) of 138% and an LD50 [2] of no less than 30 mg/kg.
For COC1C(O)C(C)OC(OC2C(Oc3cccc4c(OC(=O)COC(=O)c5ccccc5)c5c(=O)oc6ccc(C)c7c(=O)oc(c34)c5c67)OC(C)C3OC(c4ccccc4)OC32)C1O (centres unmarked) [Compound No. 167], the response vs control in vivo at 20 mg/kg [1] was 198% and the LD50 [2] was no less than 40 mg/kg.
Work on COC1C(O)C(C)OC(OC2C(Oc3cccc4c(OC(=O)CCS(C)(=O)=O)c5c(=O)oc6ccc(C)c7c(=O)oc(c34)c5c67)OC(C)C3OC(c4ccccc4)OC32)C1O (centres unmarked) [Compound No. 168] yielded a response vs control in vivo at 20 mg/kg [1] of 167% and an LD50 [2] of no less than 40 mg/kg.
COC1C(O)C(C)OC(OC2C(Oc3cccc4c(OC(=O)CC(C)C)c5c(=O)oc6ccc(C)c7c(=O)oc(c34)c5c67)OC(C)C3OC(c4ccccc4)OC32)C1O (centres unmarked) [Compound No. 169, 6-O-(3-Methyl-n-Butyryl)-3',4'-O-Benzylidene-Chartreusin] gave a response vs control in vivo at 20 mg/kg [1] of 202% and an LD50 [2] of no less than 40 mg/kg.
In the case of COC1C(O)C(C)OC(OC2C(Oc3cccc4c(OC(=O)C(C)(C)C)c5c(=O)oc6ccc(C)c7c(=O)oc(c34)c5c67)OC(C)C3OC(c4ccccc4)OC32)C1O (centres unmarked) [Compound No. 170], the response vs control in vivo at 20 mg/kg [1] is reported as 198% and the LD50 [2] is reported as no less than 40 mg/kg.
For COC1C(O)C(C)OC(OC2C(Oc3cccc4c(OC(=O)CC(C)C)c5c(=O)oc6ccc(C)c7c(=O)oc(c34)c5c67)OC(C)C3OC(C)(C)OC32)C1O (centres unmarked) [Compound No. 171], the response vs control in vivo at 40 mg/kg [1] was 186%, the response vs control in vivo at 80 mg/kg [1] was 212% and the LD50 [2] was no less than 80 mg/kg.
Molecule COC1C(O)C(C)OC(OC2C(Oc3cccc4c(OC(=O)C(Br)C(C)C)c5c(=O)oc6ccc(C)c7c(=O)oc(c34)c5c67)OC(C)C3OC(C)(C)OC32)C1O (centres unmarked) [Compound No. 172] has a response vs control in vivo at 40 mg/kg [1] of 148%, a response vs control in vivo at 80 mg/kg [1] of 195% and an LD50 [2] of no less than 80 mg/kg.
Work on C/C=C(\C)C(=O)Oc1c2cccc(OC3OC(C)C4OC(C)(C)OC4C3OC3OC(C)C(O)C(OC)C3O)c2c2oc(=O)c3c(C)ccc4oc(=O)c1c2c43 (centres unmarked) [Compound No. 173] yielded a response vs control in vivo at 40 mg/kg [1] of 152%, a response vs control in vivo at 80 mg/kg [1] of 192% and an LD50 [2] of no less than 80 mg/kg.
With COC1C(O)C(C)OC(OC2C(Oc3cccc4c(OC(=O)CSc5ccccc5)c5c(=O)oc6ccc(C)c7c(=O)oc(c34)c5c67)OC(C)C3OC(C)(C)OC32)C1O (centres unmarked) [Compound No. 174] the response vs control in vivo at 40 mg/kg [1] was 148%, the response vs control in vivo at 80 mg/kg [1] was 198% and the LD50 [2] was no less than 80 mg/kg.
C=CCCC(=O)Oc1c2cccc(OC3OC(C)C4OC(C)(C)OC4C3OC3OC(C)C(O)C(OC)C3O)c2c2oc(=O)c3c(C)ccc4oc(=O)c1c2c43 (centres unmarked) [Compound No. 175] showed a response vs control in vivo at 40 mg/kg [1] of 145%, a response vs control in vivo at 80 mg/kg [1] of 208% and an LD50 [2] of no less than 80 mg/kg.
In the case of CCOCCC(=O)Oc1c2cccc(OC3OC(C)C4OC(C)(C)OC4C3OC3OC(C)C(O)C(OC)C3O)c2c2oc(=O)c3c(C)ccc4oc(=O)c1c2c43 (centres unmarked) [Compound No. 176], the response vs control in vivo at 40 mg/kg [1] is reported as 155%, the response vs control in vivo at 80 mg/kg [1] is reported as 208% and the LD50 [2] is reported as no less than 80 mg/kg.
With CO[C@H]1[C@@H](O)[C@@H](C)O[C@H](O[C@H]2[C@H](Oc3cccc4c(OC(=O)C5CC5)c5c(=O)oc6ccc(C)c7c(=O)oc(c34)c5c67)O[C@H](C)[C@@H]3OC(C)(C)O[C@@H]32)[C@@H]1O [Compound No. 177] the response vs control in vivo at 40 mg/kg [1] was 153%, the response vs control in vivo at 80 mg/kg [1] was 208% and the LD50 [2] was no less than 80 mg/kg.
With CO[C@H]1[C@@H](O)[C@@H](C)O[C@H](O[C@H]2[C@H](Oc3cccc4c(OC(=O)C5CC5C)c5c(=O)oc6ccc(C)c7c(=O)oc(c34)c5c67)O[C@H](C)[C@@H]3OC(C)(C)O[C@@H]32)[C@@H]1O (some centres unmarked) [Compound No. 178] the response vs control in vivo at 40 mg/kg [1] was 142%, the response vs control in vivo at 80 mg/kg [1] was 181% and the LD50 [2] was no less than 80 mg/kg.
For CO[C@H]1[C@@H](O)[C@@H](C)O[C@H](O[C@H]2[C@H](Oc3cccc4c(OC(=O)c5ccc(Br)cc5)c5c(=O)oc6ccc(C)c7c(=O)oc(c34)c5c67)O[C@H](C)[C@@H]3OC(C)(C)O[C@@H]32)[C@@H]1O [Compound No. 179], the response vs control in vivo at 40 mg/kg [1] was 136%, the response vs control in vivo at 80 mg/kg [1] was 208% and the LD50 [2] was no less than 80 mg/kg.
CO[C@H]1[C@@H](O)[C@@H](C)O[C@H](O[C@H]2[C@H](Oc3cccc4c(OC(=O)c5ccc(Cl)cc5Cl)c5c(=O)oc6ccc(C)c7c(=O)oc(c34)c5c67)O[C@H](C)[C@@H]3OC(C)(C)O[C@@H]32)[C@@H]1O [Compound No. 180] gave a response vs control in vivo at 40 mg/kg [1] of 145%, a response vs control in vivo at 80 mg/kg [1] of 208% and an LD50 [2] of no less than 80 mg/kg.
Molecule CO[C@H]1[C@@H](O)[C@@H](C)O[C@H](O[C@H]2[C@H](Oc3cccc4c(OC(=O)c5ccccc5Cl)c5c(=O)oc6ccc(C)c7c(=O)oc(c34)c5c67)O[C@H](C)[C@@H]3OC(C)(C)O[C@@H]32)[C@@H]1O [Compound No. 181] has a response vs control in vivo at 40 mg/kg [1] of 145%, a response vs control in vivo at 80 mg/kg [1] of 208% and an LD50 [2] of no less than 80 mg/kg.
Work on CO[C@H]1[C@@H](O)[C@@H](C)O[C@H](O[C@H]2[C@H](Oc3cccc4c(OC(=O)c5ccc(C(F)(F)F)cc5)c5c(=O)oc6ccc(C)c7c(=O)oc(c34)c5c67)O[C@H](C)[C@@H]3OC(C)(C)O[C@@H]32)[C@@H]1O [Compound No. 182] yielded a response vs control in vivo at 40 mg/kg [1] of 153%, a response vs control in vivo at 80 mg/kg [1] of 192% and an LD50 [2] of no less than 80 mg/kg.
In the case of CO[C@H]1[C@@H](O)[C@@H](C)O[C@H](O[C@H]2[C@H](Oc3cccc4c(OC(=O)c5ccc(C#N)cc5)c5c(=O)oc6ccc(C)c7c(=O)oc(c34)c5c67)O[C@H](C)[C@@H]3OC(C)(C)O[C@@H]32)[C@@H]1O [Compound No. 183], the response vs control in vivo at 40 mg/kg [1] is reported as 153%, the response vs control in vivo at 80 mg/kg [1] is reported as 192% and the LD50 [2] is reported as no less than 80 mg/kg.
With COc1cccc(C(=O)Oc2c3cccc(O[C@@H]4O[C@H](C)[C@@H]5OC(C)(C)O[C@@H]5[C@H]4O[C@H]4O[C@H](C)[C@H](O)[C@H](OC)[C@H]4O)c3c3oc(=O)c4c(C)ccc5oc(=O)c2c3c54)c1 [Compound No. 184] the response vs control in vivo at 40 mg/kg [1] was 162%, the response vs control in vivo at 80 mg/kg [1] was 199% and the LD50 [2] was no less than 80 mg/kg.
CO[C@H]1[C@@H](O)[C@@H](C)O[C@H](O[C@H]2[C@H](Oc3cccc4c(OC(=O)c5ccc(Cl)cc5)c5c(=O)oc6ccc(C)c7c(=O)oc(c34)c5c67)O[C@H](C)[C@@H]3OC(C)(C)O[C@@H]32)[C@@H]1O [Compound No. 185] showed a response vs control in vivo at 40 mg/kg [1] of 142%, a response vs control in vivo at 80 mg/kg [1] of 192% and an LD50 [2] of no less than 80 mg/kg.
For CO[C@H]1[C@@H](O)[C@@H](C)O[C@H](O[C@H]2[C@H](Oc3cccc4c(OC(=O)c5ccc([N+](=O)[O-])cc5)c5c(=O)oc6ccc(C)c7c(=O)oc(c34)c5c67)O[C@H](C)[C@@H]3OC(c4ccccc4)O[C@@H]32)[C@@H]1O (some centres unmarked) [Compound No. 186], the response vs control in vivo at 40 mg/kg [1] was 176% and the LD50 [2] was no less than 80 mg/kg.
With CO[C@H]1[C@@H](O)[C@@H](C)O[C@H](O[C@H]2[C@H](Oc3cccc4c(OC(=O)c5ccc(C#N)cc5)c5c(=O)oc6ccc(C)c7c(=O)oc(c34)c5c67)O[C@H](C)[C@@H]3OC(c4ccccc4Cl)O[C@@H]32)[C@@H]1O (some centres unmarked) [Compound No. 187] the response vs control in vivo at 40 mg/kg [1] was 130%, the response vs control in vivo at 80 mg/kg [1] was 216% and the LD50 [2] was no less than 80 mg/kg.
CCOCCC(=O)Oc1c2cccc(O[C@@H]3O[C@H](C)[C@@H]4OC(c5cccc(Cl)c5)O[C@@H]4[C@H]3O[C@H]3O[C@H](C)[C@H](O)[C@H](OC)[C@H]3O)c2c2oc(=O)c3c(C)ccc4oc(=O)c1c2c43 (some centres unmarked) [Compound No. 188] gave a response vs control in vivo at 40 mg/kg [1] of 193% and an LD50 [2] of no less than 60 mg/kg.
